According to PubChem BioAssay (NCI):
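Cultured in 96-well plates, cells were exposed to test compound for 48 hours across five concentrations. TGI denotes the concentration required for complete inhibition of growth.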

What was measured:
Assay in all cases: inhibition of tumour cell growth, NCI panel, 48 h
A498 renal = tested on: A498 renal
HCT-116 colon = tested on: HCT-116 colon
A549 NSCLC = tested on: A549 NSCLC
T-47D breast = tested on: T-47D breast
OVCAR-5 ovarian = tested on: OVCAR-5 ovarian
SNB-75 CNS = tested on: SNB-75 CNS
SF-268 CNS = tested on: SF-268 CNS
K-562 leukemia = tested on: K-562 leukemia
PC-3 prostate = tested on: PC-3 prostate
MDA-N = tested on: MDA-N
KM12 colon = tested on: KM12 colon
LOX IMVI melanoma = tested on: LOX IMVI melanoma
SNB-19 CNS = tested on: SNB-19 CNS
SK-MEL-5 melanoma = tested on: SK-MEL-5 melanoma
SK-MEL-2 melanoma = tested on: SK-MEL-2 melanoma
NCI-H522 lung = tested on: NCI-H522 lung
RPMI-8226 leukemia = tested on: RPMI-8226 leukemia
NCI-H23 lung = tested on: NCI-H23 lung
RXF 393 renal = tested on: RXF 393 renal
HT29 colon = tested on: HT29 colon
HL-60(TB) leukemia = tested on: HL-60(TB) leukemia
IGROV1 ovarian = tested on: IGROV1 ovarian
MDA-MB-435 = tested on: MDA-MB-435
786-0 renal = tested on: 786-0 renal
NCI-H460 lung = tested on: NCI-H460 lung
SR leukemia = tested on: SR leukemia
OVCAR-3 ovarian = tested on: OVCAR-3 ovarian
UACC-62 melanoma = tested on: UACC-62 melanoma
NCI/ADR-RES ovarian = tested on: NCI/ADR-RES ovarian
CAKI-1 renal = tested on: CAKI-1 renal
CCRF-CEM leukemia = tested on: CCRF-CEM leukemia
TK-10 renal = tested on: TK-10 renal
EKVX NSCLC = tested on: EKVX NSCLC
SW-620 colon = tested on: SW-620 colon
MALME-3M melanoma = tested on: MALME-3M melanoma
NCI-H226 lung = tested on: NCI-H226 lung
UACC-257 melanoma = tested on: UACC-257 melanoma
SF-295 CNS = tested on: SF-295 CNS
SN12C renal = tested on: SN12C renal
U251 CNS = tested on: U251 CNS
SK-OV-3 ovarian = tested on: SK-OV-3 ovarian
UO-31 renal = tested on: UO-31 renal
ACHN renal = tested on: ACHN renal
OVCAR-8 ovarian = tested on: OVCAR-8 ovarian
HOP-62 NSCLC = tested on: HOP-62 NSCLC
OVCAR-4 ovarian = tested on: OVCAR-4 ovarian
SF-539 CNS = tested on: SF-539 CNS
BT-549 breast = tested on: BT-549 breast
HCT-15 colon = tested on: HCT-15 colon
MOLT-4 leukemia = tested on: MOLT-4 leukemia
MDA-MB-231 breast = tested on: MDA-MB-231 breast
HS 578T breast = tested on: HS 578T breast
COLO 205 colon = tested on: COLO 205 colon
SK-MEL-28 melanoma = tested on: SK-MEL-28 melanoma
MCF7 breast = tested on: MCF7 breast
DU-145 prostate = tested on: DU-145 prostate
HCC-2998 colon = tested on: HCC-2998 colon
M14 melanoma = tested on: M14 melanoma

## C=CCOC1=C(OC(C)=O)C(=O)OC1C1COC(C)(C)O1 (stereo not drawn)
A498 renal
  TGI: > 100 µM
HCT-116 colon
  TGI: > 65.2 µM
A549 NSCLC
  TGI: > 100 µM
T-47D breast
  TGI: > 63.7 µM
OVCAR-5 ovarian
  TGI: > 100 µM
SNB-75 CNS
  TGI: > 71.3 µM
SF-268 CNS
  TGI: > 100 µM
K-562 leukemia
  TGI: > 56.5 µM
PC-3 prostate
  TGI: > 100 µM
MDA-N
  TGI: > 100 µM
KM12 colon
  TGI: > 65.6 µM
LOX IMVI melanoma
  TGI: 33.2 µM
SNB-19 CNS
  TGI: > 100 µM
SK-MEL-5 melanoma
  TGI: > 100 µM
SK-MEL-2 melanoma
  TGI: 98.9 µM
NCI-H522 lung
  TGI: 34.6 µM
RPMI-8226 leukemia
  TGI: > 100 µM
NCI-H23 lung
  TGI: > 83.2 µM
RXF 393 renal
  TGI: > 56.5 µM
HT29 colon
  TGI: > 83.2 µM
HL-60(TB) leukemia
  TGI: > 60.8 µM
IGROV1 ovarian
  TGI: > 100 µM
MDA-MB-435
  TGI: > 74 µM
786-0 renal
  TGI: > 60.7 µM
NCI-H460 lung
  TGI: > 100 µM
SR leukemia
  TGI: 9.02 µM
OVCAR-3 ovarian
  TGI: 31.4 µM
UACC-62 melanoma
  TGI: > 100 µM
NCI/ADR-RES ovarian
  TGI: > 100 µM
CAKI-1 renal
  TGI: > 57.1 µM
CCRF-CEM leukemia
  TGI: > 60.4 µM
TK-10 renal
  TGI: > 100 µM
EKVX NSCLC
  TGI: > 68 µM
SW-620 colon
  TGI: > 59.7 µM
MALME-3M melanoma
  TGI: 57.1 µM
NCI-H226 lung
  TGI: > 100 µM
UACC-257 melanoma
  TGI: > 100 µM
SF-295 CNS
  TGI: > 100 µM
SN12C renal
  TGI: > 68.7 µM
U251 CNS
  TGI: > 100 µM
SK-OV-3 ovarian
  TGI: > 100 µM
UO-31 renal
  TGI: > 79.4 µM
ACHN renal
  TGI: 46.6 µM
OVCAR-8 ovarian
  TGI: > 84.6 µM
HOP-62 NSCLC
  TGI: > 100 µM
OVCAR-4 ovarian
  TGI: 32.1 µM
SF-539 CNS
  TGI: > 74.8 µM
BT-549 breast
  TGI: > 88.2 µM
HCT-15 colon
  TGI: 46.2 µM
MOLT-4 leukemia
  TGI: 45.7 µM
MDA-MB-231 breast
  TGI: > 100 µM
HS 578T breast
  TGI: > 100 µM
COLO 205 colon
  TGI: > 58.9 µM
SK-MEL-28 melanoma
  TGI: 31.9 µM
MCF7 breast
  TGI: > 66.4 µM
DU-145 prostate
  TGI: > 100 µM
HCC-2998 colon
  TGI: > 100 µM
M14 melanoma
  TGI: > 80.7 µM
